The record followed here is patent publication US20250213603A1, “PHARMACEUTICAL COMPOSITION FOR TREATING CANCER” (SAGA UNIVERSITY, priority 2021, published 2025).

One assay relates to BV173. In words: Induction of autophagosome formation (Cyto-ID Autophagy Detection Kit). In kind it is cell-based. Particulars: BV173, 1 mM or 5 mM, 2 hours (FIG. 7). The procedure: (§1) The induction of autophagosome formation by FA-HP-β-CyD was evaluated as follows.
(§2) Leukemia cell lines (K562 and BV173) were used in this example. The FA-HP-β-CyD synthesized in Example 1 was used.
(§3) The cells were cultured at a cell density of 4×10^5 cells/well on a 6-well plate and were treated for 2 hours with 1 mM or 5 mM HP-β-CyD or FA-HP-β-CyD, and the cells were incubated. This was followed by use of a Cyto-ID (registered trademark) Autophagy Detection Kit (Enzo Life Sciences, USA) and the use of an Axio Imager.M2 fluorescence microscope+an ApoTome.2 (Zeiss) for cell observation.

In another assay the test system is K562. The assay is described as above. In kind it is cell-based. Particulars: K562, 1 mM or 5 mM, 2 hours (FIG. 7). On the procedure:
as §1, §2, §3

Turning to “folic acid-appended hydroxypropyl-β-cyclodextrin [FA-HP-β-CyD]”, the “autophagosome membrane protein LC3B” value with BV173 and in the assay on K562 was “increase in a concentration dependent manner” each time.
